This note sets out measurements from PubChem BioAssay (NCI).

Molecules are shown by their SMILES.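 Compound exposure: 48 hours, 5 concentrations, 96-well plates. GI50: concentration for 50% inhibition of growth. TGI is the concentration that stops growth completely.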 A value given as a limit tells only on which side of the number the result lay.

Among the test systems are LOX IMVI melanoma; RPMI-8226 leukemia; NCI-H522 lung; OVCAR-8 ovarian; CCRF-CEM leukemia; SK-MEL-2 melanoma; UACC-62 melanoma; EKVX NSCLC; SF-539 CNS; SK-MEL-28 melanoma.
Common to all, as to assay: NCI-60 cell line screen, 48 h

Turning to `COc1cc(C2=NOC(c3cc(OC)c(OC)c(OC)c3)C2)ccc1OCCCCOc1cc2c(cc1OC)C(=O)N1CCC[C@H]1C=N2` (stereo partly drawn), the GI50 is 0.215 µM in the assay with LOX IMVI melanoma; 0.271 µM in the assay on RPMI-8226 leukemia; 0.217 µM in the assay with NCI-H522 lung; 0.39 µM in the assay with OVCAR-8 ovarian; 0.164 µM in the assay on CCRF-CEM leukemia; 0.241 µM in the assay with SK-MEL-2 melanoma. Besides, the GI50 with UACC-62 melanoma is 0.171 µM; in the assay with EKVX NSCLC, 0.471 µM; in the assay with SF-539 CNS, 0.277 µM; in the assay on SK-MEL-28 melanoma, 0.229 µM. Moreover, the TGI with LOX IMVI melanoma stood at 0.495 µM; in the assay on RPMI-8226 leukemia, 0.682 µM; in the assay with NCI-H522 lung it was 2.13 µM; with OVCAR-8 ovarian, 10.9 µM; with CCRF-CEM leukemia, 0.466 µM; in the assay on SK-MEL-2 melanoma, 0.612 µM. For the same compound, the TGI with UACC-62 melanoma stood at 0.335 µM; in the assay with EKVX NSCLC, 5.43 µM; in the assay with SF-539 CNS, 0.894 µM; in the assay on SK-MEL-28 melanoma, 0.49 µM.
For the compound `OCC(O)CC[CH2][Sn]([Br])([c]1ccccc1)[c]1ccccc1` (stereo not drawn), the GI50 is above 100 µM with LOX IMVI melanoma; above 100 µM in the assay on RPMI-8226 leukemia; 13 µM with NCI-H522 lung; above 100 µM in the assay with OVCAR-8 ovarian; above 100 µM in the assay with CCRF-CEM leukemia; above 100 µM in the assay with SK-MEL-2 melanoma. Moreover, the GI50 is 65.8 µM with UACC-62 melanoma, above 100 µM with EKVX NSCLC and above 100 µM in the assay on SF-539 CNS. The TGI in the assay on LOX IMVI melanoma was above 100 µM; in the assay with RPMI-8226 leukemia, above 100 µM; with NCI-H522 lung, 92.1 µM; in the assay on OVCAR-8 ovarian, above 100 µM; with CCRF-CEM leukemia, above 100 µM; in the assay with SK-MEL-2 melanoma, above 100 µM. Moreover, the TGI with UACC-62 melanoma, in the assay with EKVX NSCLC and in the assay on SF-539 CNS was above 100 µM throughout.
With `CN1CCN(C)C12C=c1ccccc1=CC21CC1`, the TGI with LOX IMVI melanoma worked out at 90 µM; in the assay with RPMI-8226 leukemia, 75.1 µM; with NCI-H522 lung, 52.9 µM; in the assay on OVCAR-8 ovarian, 98 µM; with CCRF-CEM leukemia, 58.2 µM; in the assay on SK-MEL-2 melanoma it was 53.7 µM. Also, the TGI is 34 µM in the assay on UACC-62 melanoma, above 100 µM in the assay with EKVX NSCLC, above 100 µM in the assay with SF-539 CNS and 43 µM in the assay with SK-MEL-28 melanoma.
For the compound `Oc1ccc(NCc2nc3ccccc3[nH]2)cc1`, the GI50 in the assay on LOX IMVI melanoma is 73.9 µM; in the assay on RPMI-8226 leukemia, 72.8 µM; with NCI-H522 lung it was 27.7 µM; with OVCAR-8 ovarian, 26.8 µM; in the assay with CCRF-CEM leukemia, above 100 µM; in the assay on SK-MEL-2 melanoma, 22.8 µM. Besides, the GI50 is 70.5 µM in the assay on UACC-62 melanoma, 46.2 µM in the assay with EKVX NSCLC, 51.7 µM with SF-539 CNS and 38.4 µM with SK-MEL-28 melanoma. In addition, the TGI was above 100 µM in the assay with LOX IMVI melanoma; above 100 µM in the assay with RPMI-8226 leukemia; above 100 µM in the assay with NCI-H522 lung; above 100 µM with OVCAR-8 ovarian; above 100 µM in the assay on CCRF-CEM leukemia; 98.8 µM in the assay with SK-MEL-2 melanoma. The TGI in the assay on UACC-62 melanoma, in the assay on EKVX NSCLC, in the assay with SF-539 CNS and with SK-MEL-28 melanoma was above 100 µM in each case.
Regarding `O=C(O)CNS(=O)(=O)c1ccc(NCc2ccccc2)cc1`, the TGI with LOX IMVI melanoma, in the assay on RPMI-8226 leukemia, in the assay with NCI-H522 lung, in the assay with OVCAR-8 ovarian, in the assay on CCRF-CEM leukemia and in the assay on SK-MEL-2 melanoma was above 100 µM throughout. The TGI in the assay on UACC-62 melanoma, in the assay on EKVX NSCLC, with SF-539 CNS and in the assay on SK-MEL-28 melanoma was above 100 µM in each case.
Take `NC(=O)c1ccc(I)c(N)c1`: the GI50 with LOX IMVI melanoma, in the assay on RPMI-8226 leukemia, in the assay on NCI-H522 lung, with OVCAR-8 ovarian, in the assay on CCRF-CEM leukemia and in the assay on SK-MEL-2 melanoma was above 100 µM each time. Besides, the GI50 in the assay with UACC-62 melanoma, in the assay on EKVX NSCLC, with SF-539 CNS and in the assay with SK-MEL-28 melanoma was above 100 µM throughout. In addition, the TGI in the assay with LOX IMVI melanoma, in the assay with RPMI-8226 leukemia, with NCI-H522 lung, in the assay with OVCAR-8 ovarian, in the assay with CCRF-CEM leukemia and in the assay with SK-MEL-2 melanoma was above 100 µM in each case. For the same compound, the TGI with UACC-62 melanoma, in the assay on EKVX NSCLC, in the assay with SF-539 CNS and with SK-MEL-28 melanoma was above 100 µM each time.
Take `CCOc1cc2c(Cl)ncnc2c(OCC)c1OCC`: the GI50 in the assay on LOX IMVI melanoma is 3.39 µM; in the assay with RPMI-8226 leukemia, 3.29 µM; in the assay on NCI-H522 lung, 9.67 µM; in the assay on OVCAR-8 ovarian, 6.34 µM; with CCRF-CEM leukemia, 2.6 µM; in the assay with SK-MEL-2 melanoma it was 3.61 µM. The GI50 with UACC-62 melanoma was 6.99 µM; with EKVX NSCLC it was 13.3 µM; in the assay with SF-539 CNS, 14 µM; in the assay on SK-MEL-28 melanoma, 2.15 µM. The TGI was 10 µM with LOX IMVI melanoma; 20.6 µM with RPMI-8226 leukemia; 23.5 µM in the assay with NCI-H522 lung; 28.5 µM in the assay with OVCAR-8 ovarian; 6.85 µM with CCRF-CEM leukemia; 10.3 µM in the assay with SK-MEL-2 melanoma. The TGI with UACC-62 melanoma is 20.2 µM; in the assay on EKVX NSCLC, 29.5 µM; in the assay on SF-539 CNS it was 27.8 µM; in the assay with SK-MEL-28 melanoma, 5.26 µM.
Take `C=C1C(=O)O[C@H]2[C@H]1CC/C(COC(=O)c1ccc3ccccc3c1)=C\CC[C@@]1(C)O[C@@H]21`: the GI50 with LOX IMVI melanoma was 0.406 µM; in the assay on RPMI-8226 leukemia it was 0.281 µM; with NCI-H522 lung it was 0.739 µM; with OVCAR-8 ovarian it was 1.1 µM; with CCRF-CEM leukemia it was 0.28 µM; with SK-MEL-2 melanoma, 1.2 µM. Further, the GI50 in the assay on UACC-62 melanoma was 1.22 µM; in the assay on EKVX NSCLC it was 1.63 µM; with SF-539 CNS it was 0.838 µM; with SK-MEL-28 melanoma, 1.47 µM. Moreover, the TGI worked out at 1.46 µM with LOX IMVI melanoma; 0.869 µM in the assay with RPMI-8226 leukemia; 2.2 µM in the assay on NCI-H522 lung; 2.56 µM with OVCAR-8 ovarian; 1.38 µM in the assay on CCRF-CEM leukemia; 2.61 µM in the assay on SK-MEL-2 melanoma. For the same compound, the TGI in the assay with UACC-62 melanoma stood at 2.53 µM; with EKVX NSCLC, 3.63 µM; in the assay with SF-539 CNS, 2.23 µM; in the assay with SK-MEL-28 melanoma, 2.96 µM.
